Test results published in patent US8940913B2, “Herbicides” (Syngenta Crop Protection, LLC, priority 2007, dated 2015).

What was measured:
Assay type in all cases: in vivo
[1] = system: Alopecurus myosuroides (ALOMY); experiment: Pre-emergence herbicidal activity, glasshouse pot test; conditions: 480 h, rate 250 g/ha, evaluated 20 days later, 100=total damage to plant, 0=no damage to plant
Procedure: (§1) Monocotyledonous and dicotyledonous test plants were sown in standard soil in pots. After cultivation for one day (pre-emergence) or after 10 days cultivation (post-emergence) under controlled conditions in a glasshouse, the plants were sprayed with an aqueous spray solution derived from the formulation of the technical active ingredient in 0.6 ml acetone and 45 ml formulation solution containing 10.6% Emulsogen EL (Registry number 61791-12-6), 42.2% N-methylpyrrolidone, 42.2% dipropylene glycol monomethyl ether (Registry number 34590-94-8) and 0.2% X-77 (Registry number 11097-66-8). The test plants were then grown in a greenhouse under optimum conditions until, 15 days later for post-emergence and 20 days for pre-emergence, the test was evaluated (100=total damage to plant; 0=no damage to plant). Test Plants: Alopecurus myosuroides (ALOMY), Avena fatua (AVEFA), Lolium perenne (LOLPE), Setaria faberi (SETFA), Digitaria sanguinalis (DIGSA), Echinochloa crus-galli (ECHCG)

[2] = system: Avena fatua (AVEFA); experiment: as above; conditions: 480 h, rate 250 g/ha, evaluated 20 days later, 100=total damage to plant, 0=no damage to plant
Procedure: as §1

[3] = system: Digitaria sanguinalis (DIGSA); experiment: as above; conditions: 480 h, rate 250 g/ha, evaluated 20 days later, 100=total damage to plant, 0=no damage to plant
Procedure: as §1

[4] = system: Echinochloa crus-galli (ECHCG); experiment: as above; conditions: 480 h, rate 250 g/ha, evaluated 20 days later, 100=total damage to plant, 0=no damage to plant
Procedure: as §1

[5] = system: Lolium perenne (LOLPE); experiment: as above; conditions: 480 h, rate 250 g/ha, evaluated 20 days later, 100=total damage to plant, 0=no damage to plant
Procedure: as §1

[6] = system: Setaria faberi (SETFA); experiment: as above; conditions: 480 h, rate 250 g/ha, evaluated 20 days later, 100=total damage to plant, 0=no damage to plant
Procedure: as §1

[7] = system: Alopecurus myosuroides (ALOMY); experiment: Post-emergence herbicidal activity, glasshouse pot test; conditions: 360 h, rate 125 g/ha, evaluated 15 days later, 100=total damage to plant, 0=no damage to plant
Procedure: as §1

[8] = system: Avena fatua (AVEFA); experiment: as above; conditions: 360 h, rate 125 g/ha, evaluated 15 days later, 100=total damage to plant, 0=no damage to plant
Procedure: as §1

[9] = system: Digitaria sanguinalis (DIGSA); experiment: as above; conditions: 360 h, rate 125 g/ha, evaluated 15 days later, 100=total damage to plant, 0=no damage to plant
Procedure: as §1

[10] = system: Echinochloa crus-galli (ECHCG); experiment: as above; conditions: 360 h, rate 125 g/ha, evaluated 15 days later, 100=total damage to plant, 0=no damage to plant
Procedure: as §1

[11] = system: Lolium perenne (LOLPE); experiment: as above; conditions: 360 h, rate 125 g/ha, evaluated 15 days later, 100=total damage to plant, 0=no damage to plant
Procedure: as §1

[12] = system: Setaria faberi (SETFA); experiment: as above; conditions: 360 h, rate 125 g/ha, evaluated 15 days later, 100=total damage to plant, 0=no damage to plant
Procedure: as §1

| SMILES | pest or weed control at 250 g/ha [1] | pest or weed control at 250 g/ha [2] | pest or weed control at 250 g/ha [3] | pest or weed control at 250 g/ha [4] | pest or weed control at 250 g/ha [5] | pest or weed control at 250 g/ha [6] | pest or weed control at 125 g/ha [7] | pest or weed control at 125 g/ha [8] | pest or weed control at 125 g/ha [9] | pest or weed control at 125 g/ha [10] | pest or weed control at 125 g/ha [11] | pest or weed control at 125 g/ha [12] |
| --- | --- | --- | --- | --- | --- | --- | --- | --- | --- | --- | --- | --- |
| CCc1ccc(-c2ccc(Cl)nc2Cl)cc1C1=C(O)[C@H]2[C@@H](C1=O)[C@@H]1CC[C@H]2O1 [Compound T21] | 50% | 50% | 90% | 100% | 60% | 100% | 80% | 80% | 100% | 100% | 40% | 90% |
| CCc1ccc(-c2ccc(Cl)cc2Cl)cc1C1=C(O)[C@H]2[C@@H](C1=O)[C@]1(C)CC[C@@]2(C)O1 [Compound T24] | 10% | 30% | 100% | 100% | 30% | 100% | 90% | 90% | 100% | 100% | 60% | 100% |
| Cc1cc(-c2ccc(C(F)(F)F)cc2)cc(C)c1C1C(=O)[C@@H]2[C@H](C1=O)[C@H]1CC[C@@H]2O1 (stereo partly drawn) [Compound T26] | 0% | 0% | 70% | 70% | 0% | 70% | 30% | 20% | 90% | 90% | 30% | 100% |
| Cc1ccc(-c2cc(C)c(C3C(=O)[C@@H]4[C@H](C3=O)[C@H]3CC[C@@H]4O3)c(C)c2)cc1 (stereo partly drawn) [Compound T27] | 0% | 30% | 40% | 60% | 30% | 40% | 70% | 40% | 60% | 70% | 70% | 70% |
| CCc1ccc(-c2ccc(Cl)cc2C)cc1C1=C(O)[C@H]2[C@@H](C1=O)[C@]1(C)CC[C@@]2(C)O1 [Compound T28] | 0% | 30% | 30% | 0% | 40% | 20% | 90% | 90% | 70% | 100% | 50% | 100% |
| CCc1ccc(-c2ccc(Cl)c(Cl)c2)cc1C1=C(O)[C@H]2[C@@H](C1=O)[C@]1(C)CC[C@@]2(C)O1 [Compound T29] | 10% | 0% | 40% | 0% | 30% | 50% | 90% | 90% | 100% | 100% | 50% | 100% |
| CCc1ccc(-c2ccc(Cl)c(C(F)(F)F)c2)cc1C1=C(O)[C@H]2[C@@H](C1=O)[C@]1(C)CC[C@@]2(C)O1 [Compound T31] | 0% | 50% | 30% | 60% | 20% | 10% | 90% | 80% | 100% | 100% | 40% | 100% |
| CCc1ccc(-c2ccc(Cl)s2)cc1C1=C(O)[C@H]2[C@@H](C1=O)[C@]1(C)CC[C@@]2(C)O1 [Compound T32] | 30% | 0% | 30% | 70% | 60% | 100% | 70% | 70% | 70% | 100% | 60% | 70% |
| CCc1ccc(-c2ccc(Cl)c(F)c2)cc1C1=C(O)[C@H]2[C@@H](C1=O)[C@]1(C)CC[C@@]2(C)O1 [Compound T33] | 20% | 0% | 70% | 70% | 50% | 80% | 100% | 100% | 100% | 100% | 80% | 100% |
| CCc1ccc(-c2ccc(Cl)c(F)c2Cl)cc1C1=C(O)[C@H]2[C@@H](C1=O)[C@]1(C)CC[C@@]2(C)O1 [Compound T37] | 20% | 30% | 100% | 80% | 50% | 80% | 90% | 100% | 100% | 100% | 70% | 100% |
| CCc1ccc(-c2ccc(Cl)c(F)c2F)cc1C1=C(O)[C@H]2[C@@H](C1=O)[C@]1(C)CC[C@@]2(C)O1 [Compound T38] | 0% | 30% | 30% | 100% | 50% | 90% | 100% | 90% | 100% | 100% | 50% | 80% |
| CCc1ccc(-c2ccc(Cl)c(Cl)c2F)cc1C1=C(O)[C@H]2[C@@H](C1=O)[C@]1(C)CC[C@@]2(C)O1 [Compound T40] | 10% | 10% | 100% | 50% | 0% | 70% | 60% | 40% | 100% | 100% | 30% | 80% |
